Measured values reported in US20070105787A1, “Use of ribose in recovery from anaesthesia” (priority 2004, published 2007).

Key:
[1] = test system: patients selected for OCBP revascularization; assay: presurgical oral ribose loading, off cardiopulmonary bypass (OCBP) revascularization trial; assay type: in vivo, human; conditions: oral D-ribose preoperatively (24 patients) vs no ribose (20), baseline to post-operative, p<0.028
Source text: Patients with stable coronary artery disease or patients presenting with acute myocardial infarction may undergo revascularization using an “off” cardiopulmonary bypass procedure (“OCBP”). This procedure avoids the deleterious effects of cross-clamping in patients who can be selected for the procedure. The selection criteria include: accessibility of the grafts; number of the grafts; condition of the patient. When the area to be revascularized is at the back of the heart, the heart will need to be handled and rotated, which would interfere with the beating of the heart. If several grafts are needed, the time of operation is prolonged and the patient's heart will need to support circulation for a long time. Finally, a poorly functioning heart will need the assistance of the pump to support circulation. Nevertheless, in properly selected patients, the benefits of avoiding cross-clamping are substantial.
Forty-four adult patients were enrolled in a trial. At least one-third of the patents had sustained an acute myocardial infarction prior to presentation and pre-operative ejection fractions ranged from 30-72%. All patients were selected for OCBP revascularization with 20 patients comsuming no pre-operative ribose and 24 patients given oral D-ribose preoperatively, cardiac indices were measured at baseline and post-operatively. […]

[2] = test system: myocardial dysfunction resulting from globally induced ischemia during cardiac surgical procedures; assay type: in vivo, human
Source text: Inclusion criteria were: • Males or females aged 18 or older • Patients with documented coronary artery disease undergoing CABG with an ejection fraction (EF) of ≦35% based on echocardiography, radionuclide imaging or cardiac catheterization done within eight weeks of surgery. (If more than one method was used to evaluate EF during this period, the mean values of the various methods were ≦35%). • Patients undergoing single or double valve replacement with documented coronary artery disease also undergoing CABG; or patients undergoing single or double valve replacement without CABG • Serum creatinine of ≦2.35 mg/dl • For females of childbearing potential, a negative pregnancy test. • Signed consent forms. The test article, placebo or ribose, was dispensed according to computer-generated randomization schedule either for patients undergoing CABG only or for patients undergoing heart valve surgery +/-CABG. All patients received a high dose narcotic anaesthesia technique consisting of either fentanyl (50-100 μg/kg) or sufentanil (10-20 μg/kg) and midazolam. No restriction was placed on the type of anaesthetic agents administered. The anaesthesiologists and surgeons responsible for the care of the patents made the clinical decision to use inotropic support, intra-aortic balloon pump support or post bypass circulatory support based on their knowledge of patients requirements and accepted medical practice and without regard to test article status. The test article infusion was started intravenously at the time of aortic cross clamping and continued until the pulmonary artery catheters introducer was removed or for five days (120) hours whichever occurred first. The surgeons responsible for the clinical care of the patients removed the pulmonary artery catheter cordis without regard to test article stats. Hemodynamic measurements consisting of heart rate, blood pressure, pulmonary artery pressures, pulmonary capillary wedge pressure (PCWP), central venous pressure (CVP) and thermodilution cardiac index (CI) were obtained at the following time intervals: immediately prior to induction of anaesthesia, post induction of anaesthesia prior to sternotomy, post sternotomy prior to initiation of cardiopulmonary bypass, upon successful termination of cardiopulmonary bypass prior to sternal closure and prior to reversal of heparinization with protamine, post closure of the sternum, upon arrival in the intensive care unit and at one or two hour intervals until the pulmonary artery a catheter was removed. Transesophageal echocardiography data (H.P. Sonos OR, 5.0 MHz, Andover, Mass.) was collected at the following time intervals: post induction of anaesthesia prior to sternotomy, and immediately post closure of the sternum. Transthoracic echocardiography (H.P. Sonos 1500. 2.5 MHz, Andover, Mass.) measurements were made on day three and day seven of the study period. For both the transesophageal and transthoracic echocardiograms, the following long axis and short axis mid-papillary area changes were measured in triplicate by acoustic quantification techniques: end diastolic area (EDA), end systolic area (ESA), fractional area change (FAC), +dA/dt and -dA/dt. All area change data were also analyzed by manual off line analysis. EF was also determined off line using a long axis view. In addition, regional wall motion was quantified as the following: normal=1, hypokinetic=2, akinetic=3 and dyskinetic=4. The wall motion index score (WMIS) and percentage normal myocardium were calculated by reading a maximum of sixteen segments. Echocardiography data for evaluating wall motion and area change was analyzed only if greater than 75% of the endocardial border could be visualized through a complete cardiac cycle. […]

[3] = test system: sheep undergoing aortic valve replacement under general anaesthesia
[4] = test system: recovery from general anaesthesia; assay: anecdotal reports, non-cardiac surgery with general anaesthesia; assay type: in vivo, human; conditions: person, vs first operation
Source text: A. Anecdotal Results from Non-Cardiac Surgery with General Anaesthesia. […] For example, a person underwent two hip replacement operations, five months apart. With the second operation, they began taking oral ribose immediately after their recovery from anaesthesia. Their recovery to a feeling of alertness and energy was more rapid than after the first operation. Furthermore, their level of pain was less. Likewise, a person also underwent two knee replacement operations. With the second operation, they self-administered D-Ribose pre- and postoperatively. Their recovery to a feeling of alertness and energy was more rapid than after the first operation. Bauer et al. (Z. Geb. Neonatal 2001 May-June, 205(3):80-85) studied the efficacy of oral glucose for treating procedural pain in neonates. […] The authors proposed that the orogustatory stimulation by the sweet taste caused an endorphin release. It is not known whether the result seen was due to the local effect or to a systemic effect of glucose.

[5] = test system: patients undergoing AVR with aortic cross clamping; assay: planned trial of preoperative oral plus intravenous D-Ribose before cross clamping (Example 3); assay type: in vivo, human; conditions: oral D-Ribose preloading plus IV 100 mg/kg/hour with D-Glucose, vs placebo
Source text: A single-center, randomized, double-blinded placebo-controlled clinical trial was designed to determine if preoperative oral administration of D-Ribose, following by peri-operative and operative intravenous infusion of D-Ribose could improve the ejection fraction and other functional parameters of hearts that are cross-clamped for various cardiac surgical procedures. Thirty (30) patients meeting the inclusion and exclusion criteria and who have signed informed consent forms will be randomized to receive oral D-Ribose (15) or D-Glucose (placebo) (15) for seven or 14 days prior to their surgical procedure and intravenous 5% […] (5% D-Glucose in normal saline, 0.5 mL/kg/hour) or 10% pyrogen-free D-Ribose in 5% D5W at a dose of 100 mg/kg/hour for five (5) days through a pulmonary artery cordis) beginning at the time of aortic cross clamping. […] Patients will be evaluated baseline×2, (once prior to beginning oral test supplement and again within three days prior to surgical procedure), during and after surgery, and at days 1, 5 and 7. […] Patients will be evaluated for eligibility within three days to first test article administration and evaluation will be updated within three days prior to surgery. […] A medication history will be taken and all medications recorded in the case report. […]

[6] = test system: Wistar rats, recovery from general anaesthesia; assay: planned rat sham abdominal surgery study under halothane anaesthesia; assay type: in vivo; conditions: D-Ribose before, during and after sham operation, vs D-Glucose placebo
Procedure: Littered-paired Wistar rats will be preconditioned with oral D-Ribose (250 mg/day, 10 animals) as a test drug or D-Glucose (250 mg/day, 10 animals) as a placebo for five days. Following the preconditioning, the rats will be anesthetized with halothane, intubated for artificial respiration and paralyzed with curare. Following general anaesthesia, the rats will be given either the test drug or placebo, intravenously (IV). A two-inch abdominal incision will be made and the viscera will be carefully manipulated to simulate an abdominal exploratory surgery. The incision will be closed and the animals will be held under anaesthesia for one additional hour. Following that hour, anaesthesia will be discontinued and the IV infusion will be halted. The animals will be placed individually in activity cages and their activity will be assessed daily for five days. Test drug or placebo will be added to the drinking water at a dosage of 5% wt/vol. The blinded results will be observed for: first movement (return to consciousness following the sham operation) and daily activity over the first day and next five days. Food and water intake and gastrointestinal function will be measured.

[7] = test system: healthy dog hearts after 20 minute normothermic global myocardial ischemia; conditions: D-Ribose from reperfusion for at least four days; cited from earlier work
[8] = test system: procedural pain in neonates; conditions: glucose solution on the tongue; cited from earlier work
[9] = second hip replacement, oral ribose after anaesthesia

| SMILES | greater increase in cardiac indices compared to controls [1] [%] | patients who developed hypoglycemia (fingerstick glucose<70 mg/dl) ([2]; both, human, in vivo) [%] | lowest glucose level ([2]; human, in vivo) [mg/dL] | mean glucose level in those patients developing hypoglycemia ([2]; human, in vivo) [mg/dL] | neurological or other clinical symptoms associated with hypoglycemia ([2]; human, in vivo) | mean Day 7 EF ([2]; ribose treated patients, Day 7, echocardiography, IV 100 mg/kg/hr, p=0.49 vs baseline) [%] | mean baseline EF ([2]; ribose treated patients, baseline, echocardiography, IV 100 mg/kg/hr) [%] | change of EF from baseline to Day 7 ([2]; ribose treated patients, placebo EF declined, treatment effect p=0.04) | tolerability (metabolic or chemical abnormalities) ([3]; in vivo, iv) | time quiet and inactive after extubation ([3]; sheep given ribose) | time to eating solid food ([3]; sheep given ribose, some animals, after the quiet period) | time to assume a consciousness state upon weaning from the ventilator ([3]; sheep, vs animals not given ribose) | time to cardiac arrest with cardioplegia ([3]; sheep, vs animals not given ribose, difference not statistically significant) | level of pain [4, 9] | recovery to a feeling of alertness and energy [4, 9] | recovery to a feeling of alertness and energy ([4]; second knee replacement, D-Ribose pre- and postoperatively) | expected myocardial function and recovery [5] | expected movement after anaesthesia and activity during the following five days [6] | ATP recovery [7] | degree of pain experienced during venous blood sampling [8] |
| --- | --- | --- | --- | --- | --- | --- | --- | --- | --- | --- | --- | --- | --- | --- | --- | --- | --- | --- | --- | --- |
| O=C[C@H](O)[C@H](O)[C@H](O)CO [D-Ribose] | 49 | 28 | 31 | 58 | None of these patients developed neurological or other clinical symptoms | 41 | 44 | unchanged | no metabolic or chemical abnormalities | about one | within the next hour | faster | somewhat faster | less | more rapid | more rapid | better myocardial function | earlier movement after anaesthesia and increased activity | enhanced ATP recovery | – |
| O=C[C@H](O)[C@@H](O)[C@H](O)[C@H](O)CO [glucose, D-Glucose] | – | – | – | – | – | – | – | – | – | – | – | – | – | – | – | – | – | – | – | reduced the degree of pain |
